Results published in PMC8122972, “Methoxy-Substituted Tyramine Derivatives Synthesis, Computational Studies and Tyrosinase Inhibitory Kinetics” (Molecules, 2021).
Several values for one entry are separate records, joined by “and”; a condition that tells them apart may be missing. Equal values may be shown once. Entries after “also recorded” stand apart in the source; their conditions may differ. Read-outs that look alike come from different tables or passages of the source. Values belong to the molecule of their own block, whether it stands above or below them.

Tests used:
human tyrosinase = target: T1, human tyrosinase (Homo sapiens, UniProt P14679); experiment: Human tyrosinase inhibition assay (enzyme prepared from A375 human melanoma cells); assay type: biochemical; settings: L-DOPA, 50 µg/mL (b9)
T1 construct: endogenous in cells; host or cells: A375 human melanoma cells (ATCC), induced with L-tyrosine; sonicated pellet, 10,000 x g supernatant
T1 sequence (P14679 19-529): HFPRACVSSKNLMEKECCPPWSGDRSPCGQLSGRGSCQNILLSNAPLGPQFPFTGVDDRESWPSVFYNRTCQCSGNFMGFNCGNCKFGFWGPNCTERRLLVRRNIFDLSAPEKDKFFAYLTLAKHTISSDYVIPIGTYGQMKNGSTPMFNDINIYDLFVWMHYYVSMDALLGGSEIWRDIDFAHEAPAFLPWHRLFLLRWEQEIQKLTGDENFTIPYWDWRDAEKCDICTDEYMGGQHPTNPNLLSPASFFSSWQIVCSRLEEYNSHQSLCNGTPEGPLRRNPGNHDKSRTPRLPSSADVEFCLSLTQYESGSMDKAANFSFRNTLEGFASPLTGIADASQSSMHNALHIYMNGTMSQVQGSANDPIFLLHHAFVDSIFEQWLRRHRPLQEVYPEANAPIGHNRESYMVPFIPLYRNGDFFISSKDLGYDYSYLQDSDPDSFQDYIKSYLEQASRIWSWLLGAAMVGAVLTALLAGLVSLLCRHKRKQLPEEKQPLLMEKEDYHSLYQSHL
Protocol: A375 human melanoma cells were obtained from American Type Culture Collection (ATCC; Rockville, MD, USA). A375 cells were grown in Dulbecco’s modified Eagle’s medium (DMEM; Invitrogen, Burlington, ON, Canada) supplemented with L-glutamine, 10% (v/v) fetal bovine serum (FBS; Invitrogen), 50 µg/mL streptomycin (Sigma Aldrich, St. Louis, MO, USA), 50 units/mL penicillin (Sigma Aldrich) and supplemented with 200 µM of L-tyrosine for tyrosinase induction. Cell cultures were incubated at 37 °C, in a humidified atmosphere of 5% CO2. Cells were scraped out from the tissue culture plate with phosphate-buffer saline (PBS) and were homogenized at 4 °C in PBS. The homogenate was centrifuged at 1000× g for 10 min. The precipitate was sonicated in PBS on ice and the mixture was centrifuged at 10,000× g for 30 min. The supernatant containing tyrosinase was used for the measurement of the inhibitory effects.
The assay reaction mixture (200 µL) contained 3.3 mM L-DOPA in 0.33 M phosphate buffer (pH 7.0) and the enzyme in the presence and absence of inhibitors. Fifteen or twenty units of tyrosinase were used to determine the % inhibition. The reaction mixture was incubated at 37 °C for 10 min and the absorbance was recorded at 475 nm using a microplate reader (OPTI Max, Tunable). One unit of the enzyme was defined as the amount of enzyme which increases the absorbance value by 0.001 at 475 per minute under the same conditions as described above.

mushroom tyrosinase [1] = target: T2, mushroom tyrosinase (Agaricus bisporus, UniProt C7FF04); experiment: In vitro mushroom tyrosinase inhibition assay (L-DOPA, dopachrome at 475 nm); assay type: biochemical
T2 construct: purchased Sigma Aldrich (St. Louis, MO, USA)
Target sequence in this assay (C7FF04 1-392 limits assumed): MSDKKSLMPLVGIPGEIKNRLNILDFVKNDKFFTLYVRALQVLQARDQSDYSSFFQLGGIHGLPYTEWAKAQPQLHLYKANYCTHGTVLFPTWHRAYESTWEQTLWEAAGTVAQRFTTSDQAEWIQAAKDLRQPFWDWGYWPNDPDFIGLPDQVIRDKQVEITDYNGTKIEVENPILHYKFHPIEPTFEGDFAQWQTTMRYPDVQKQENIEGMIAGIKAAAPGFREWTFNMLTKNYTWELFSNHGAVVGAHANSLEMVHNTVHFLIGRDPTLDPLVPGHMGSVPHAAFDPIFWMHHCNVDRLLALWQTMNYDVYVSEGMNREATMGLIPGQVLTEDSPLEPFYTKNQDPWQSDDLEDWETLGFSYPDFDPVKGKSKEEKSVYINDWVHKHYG
Protocol: In vitro mushroom tyrosinase (Sigma Aldrich, St. Louis, MO, USA) inhibition assay was performed, following our already reported method [52]. In detail, 140 µL of phosphate buffer (20 mM, pH 6.8), 20 µL of mushroom tyrosinase (30 U/mL) and 20 µL of the inhibitor solution were placed in the wells of a 96-well microplate. After pre-incubation for 10 min at room temperature, 20 µL of L-DOPA (3,4-dihydroxyphenylalanine, Sigma Aldrich, St. Louis, MO, USA) (0.85 mM) was added and the assay plate was further incubated at 25 °C for 20 min. Afterward the absorbance of dopachrome was measured at 475 nm using a microplate reader (OPTIMax, Tunable, Sunnyvale, CA, USA). All of the compounds were dissolved in DMSO and blank tests were performed with solvent DMSO. The IC50 values were reported after subtracting the value of DMSO. […] Each concentration was analyzed in three independent experiments. The IC50 values were determined by the data analysis and graphing software Origin 8.6, 64-bit.
The tyrosinase %age inhibition was determined by using the following formula:Inhibition (%) = [(B − S)/B] × 100(1)
Here, the absorbance of the blank and inhibitor are represented by B and S respectively.

mushroom tyrosinase [2] = target: T2, mushroom tyrosinase; experiment: Kinetic analysis of the inhibition of mushroom tyrosinase (Lineweaver-Burk plots); assay type: biochemical; settings: for Inhibition Type: Lineweaver-Burk plots; for Ki: secondary plot of slope
Protocol: Among the synthesized Ph derivatives Ph5, Ph6 and Ph9 were selected to determine their inhibition type and inhibition constants on mushroom tyrosinase activity. The potential of these derivatives to inhibit the free enzyme and enzyme–substrate complex was determined in terms of enzyme inhibitor (EI) and enzyme–substrate-inhibitor (ESI) constants respectively. […] Meanwhile, in the case of compound Ph6, the Lineweaver–Burk plot gave a family of straight lines, all of which intersected at the same point on the x-axis Figure 2A. […] It is worth mentioning here that the enzyme inhibitory kinetics were performed with a more efficient natural substrate L-DOPA (L-3,4-dihydroxyphenylalanine). Ph5 is a 3,5-dihydroxyl-substituted benzoic acid derivative and Ph9 is 2,4-dihydroxyl-substituted cinnamic acid derivative whereas, Ph6 is an unsubstituted cinnamic acid analogue.
A series of experiments were performed to calculate the inhibitory kinetics of compounds Ph5, Ph6 and Ph9 by following the already reported method. […] The concentration of substrate L-DOPA was between 0.125 to 2 mM in all kinetic studies. Pre-incubation time and measurement time were the same as discussed in mushroom tyrosinase inhibition assay protocol. Maximal initial velocity was determined from initial linear portion of absorbance up to five minutes after addition of enzyme at a 30 s interval. The inhibition type on the enzyme was determined by Lineweaver–Burk plots of inverse velocities (1/V) versus the inverse of substrate concentration 1/[S] mM^−1.
Target sequence in this assay (C7FF04 1-392): as the sequence (C7FF04 1-392 limits assumed) above

tyrosinase = target: tyrosinase; design: method as in PMID 24191339; settings: cited from earlier work
[3] = substrate L-DOPA, pH 6.8, 25 °C, read-out: Mushroom Tyrosinase IC50 ± SEM
[4] = mushroom tyrosinase, L-DOPA, read-out: Ki (enzyme inhibitor constant)

inhibition (human tyrosinase): 75.6 ± 5.65%
IC50 (mushroom tyrosinase [1]; [3]): 4070 ± 154 nM
SMILES: COc1ccc(CCNC(=O)COC(=O)c2cccc(O)c2)cc1 [Ph1, 2-((4-methoxyphenethyl)amino)-2-oxoethyl 3-hydroxybenzoate]

inhibition (human tyrosinase): 73 ± 5.35%
IC50 (mushroom tyrosinase [1]; [3]): 463 ± 17 nM
SMILES: COc1ccc(CCNC(=O)COC(=O)c2ccc(O)cc2)cc1 [Ph2, 2-((4-methoxyphenethyl)amino)-2-oxoethyl 4-hydroxybenzoate]

inhibition (human tyrosinase): 79.7 ± 6.61%
IC50 (mushroom tyrosinase [1]; [3]): 839 ± 38.1 nM
SMILES: COc1ccc(CCNC(=O)COC(=O)c2ccc(O)cc2O)cc1 [Ph3, 2-((4-methoxyphenethyl)amino)-2-oxoethyl 2,4-dihydroxybenzoate]

inhibition (human tyrosinase): 82.2 ± 7.04%
IC50 (mushroom tyrosinase [1]; [3]): 329 ± 21 nM
SMILES: COc1ccc(CCNC(=O)COC(=O)c2ccc(O)c(O)c2)cc1 [Ph4, 2-((4-methoxyphenethyl)amino)-2-oxoethyl 3,4-dihydroxybenzoate]

inhibition (human tyrosinase): 85.6 ± 6.04%
IC50 (mushroom tyrosinase [1]; [3]): 104 ± 3.8 nM
melting point: 111 to 113 °C
SMILES: COc1ccc(CCNC(=O)COC(=O)/C=C/c2ccccc2O)cc1 [Ph7, 2-((4-methoxyphenethyl)amino)-2-oxoethyl (E)-3-(2-hydroxyphenyl)acrylate]

inhibition (human tyrosinase): 86.3 ± 6.54%
IC50 (mushroom tyrosinase [1]; [3]): 923 ± 53 nM
melting point: 119 to 121 °C
SMILES: COc1ccc(CCNC(=O)COC(=O)/C=C/c2ccc(O)cc2)cc1 [Ph8, 2-((4-methoxyphenethyl)amino)-2-oxoethyl(E)-3-(4-hydroxyphenyl)acrylate]

inhibition (human tyrosinase): 79.2 ± 5.95%
IC50 (mushroom tyrosinase [1]; [3]): 452 ± 17.1 nM
SMILES: COc1ccc(CCNC(=O)COC(=O)/C=C/c2ccc(Cl)cc2)cc1 [Ph10, 2-((4-methoxyphenethyl)amino)-2-oxoethyl (E)-3-(4-chlorophenyl)acrylate]

The remaining lines, values behind:

SMILES: COc1ccc(CCNC(=O)COC(=O)c2cc(O)cc(O)c2)cc1 [Ph5, 2-((4-methoxyphenethyl)amino)-2-oxoethyl 3,5-dihydroxybenzoate]
inhibition (human tyrosinase): 64.8 ± 3.84%
IC50 (mushroom tyrosinase [1]; [3]): 231 ± 7.8 nM
Vmax (mushroom tyrosinase [2]; inhibitor dose 0.2 µM): 8.266 × 10^−6 ∆A/s
Vmax (mushroom tyrosinase [2]; inhibitor dose 0.4 µM): 5.242 × 10^−6 ∆A/s
Inhibition Type (mushroom tyrosinase [2]; mushroom tyrosinase, L-DOPA): mixed-type inhibition
Ki′ (enzyme substrate inhibitor constant) (mushroom tyrosinase [2]; mushroom tyrosinase, L-DOPA, secondary plot of intercept): 475 nM
Ki (mushroom tyrosinase [2]; [4]): 219 nM

SMILES: COc1ccc(CCNC(=O)COC(=O)C=Cc2ccccc2)cc1 [Ph6, 2-((4-methoxyphenethyl)amino)-2-oxoethyl cinnamate]
Human Tyrosinase (% Inhibition) (human tyrosinase): 92.24 ± 7.985%
inhibition at 50 µg/mL (human tyrosinase): 92.2%
IC50 (mushroom tyrosinase [1]; Mushroom Tyrosinase IC50 ± SEM, substrate L-DOPA, pH 6.8, 25 °C): 2.04 ± 0.087 nM
IC50 (mushroom tyrosinase [1]; Mushroom tyrosinase IC50, as printed in the abstract): 2.1 nM
Ki (mushroom tyrosinase [2]; Ki (enzyme inhibitor constant), mushroom tyrosinase, L-DOPA): 2.3 nM
Vmax (mushroom tyrosinase [2]; inhibitor dose 0.001 µM): 7.060 × 10^−6 ∆A/s
Vmax (mushroom tyrosinase [2]; inhibitor dose 0.002 µM): 6.929 × 10^−6 ∆A/s
Inhibition Type (mushroom tyrosinase [2]; mushroom tyrosinase, L-DOPA): non-competitive inhibitor; also recorded: non-competitive inhibition
melting point: 103 to 105 °C

SMILES: COc1ccc(CCNC(=O)COC(=O)/C=C/c2ccc(O)cc2O)cc1 [Ph9, 2-((4-methoxyphenethyl)amino)-2-oxoethyl(E)-3-(2,4-dihydroxyphenyl)acrylate]
Human Tyrosinase (% Inhibition) (human tyrosinase): 94.59 ± 8.071%
inhibition at 50 µg/mL (human tyrosinase): 94.6%
IC50 (mushroom tyrosinase [1]; read-out: Mushroom tyrosinase IC50): 0.059 nM
IC50 (mushroom tyrosinase [1]; [3]): 0.06 nM and 0.059 nM and 0.0595 nM
Vmax (mushroom tyrosinase [2]; inhibitor dose 0.00003 µM): 4.666 × 10^−6 ∆A/s
Vmax (mushroom tyrosinase [2]; inhibitor dose 0.00012 µM): 2.666 × 10^−6 ∆A/s
Vmax (mushroom tyrosinase [2]; inhibitor dose 0.00015 µM): 4.285 × 10^−6 ∆A/s
Inhibition Type (mushroom tyrosinase [2]; mushroom tyrosinase, L-DOPA): mixed-type inhibition
Ki (mushroom tyrosinase [2]; [4]): 0.09 nM and 0.093 nM

SMILES: O=c1oc2c(O)c(O)cc3c(=O)oc4c(O)c(O)cc1c4c23 [ellagic acid]
Tyrosinase inhibitory activity IC50 (tyrosinase; substrate L-DOPA): 151.1 µg/mL

SMILES: O=c1c(O)c(-c2ccc(O)c(O)c2)oc2cc(O)c(O)c(O)c12 [quercetagetin]
Tyrosinase inhibitory activity IC50 (tyrosinase; substrate L-DOPA): 128.41 µg/mL
Tyrosinase inhibitory activity IC50 (tyrosinase; substrate L-tyrosine): 89.31 µg/mL
